Some test systems named below: HOP-92; MDA-N; A498; OVCAR-5; Hs-578T; COLO 205; IGROV-1; UACC-257; M14; HT-29; A549; SK-OV-3; HL-60; K562; 786-0; LOX IMVI; RXF 393; SF-295; SF-268; RPMI-8226.
Holding throughout (experiment): NCI tumour cell line growth inhibition, 48 h

The structures appear in SMILES notation.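 Values below derive from 48-hour exposures of cells grown in 96-well plates, with endpoints linearly interpolated between the two concentrations bracketing the appropriate inhibition level. The concentration for 50% growth inhibition is given as GI50.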 Active and inactive are the calls of the source. No stated cut-off is given here; in the data, active = GI50 up to about 1.1 µM and inactive = higher.

For `COc1ccc(CCN2CCOCC2)cc1`, the GI50 in the assay on HOP-92, in the assay with MDA-N, in the assay on A498, in the assay with OVCAR-5, in the assay on Hs-578T and in the assay on COLO 205 was > 100 µM (inactive) each time. In addition, the GI50 in the assay on IGROV-1, in the assay on UACC-257, in the assay with M14, in the assay on HT-29, in the assay with A549 and with SK-OV-3 was > 100 µM (inactive) in each case. In addition, the GI50 in the assay on HL-60, in the assay on K562, in the assay on 786-0, with LOX IMVI, in the assay with RXF 393 and in the assay on SF-295 was > 100 µM (inactive) in each case. Also, the GI50 in the assay on SF-268 and in the assay on RPMI-8226 was > 100 µM (inactive) throughout.
For the compound `Cc1cc(C)n(CN(CCCCO)Cn2nc(C)cc2C)n1`, the GI50 in the assay with HOP-92 was 22 µM (inactive); with MDA-N it was 17.5 µM (inactive); in the assay on A498, > 100 µM (inactive); in the assay on OVCAR-5, 23.2 µM (inactive); in the assay on Hs-578T, > 100 µM (inactive); in the assay on COLO 205, 17.2 µM (inactive). Moreover, the GI50 was 26.9 µM (inactive) in the assay on IGROV-1; 25.5 µM (inactive) with UACC-257; 18.5 µM (inactive) with M14; 17.9 µM (inactive) in the assay with HT-29; 49.2 µM (inactive) with A549; > 100 µM (inactive) with SK-OV-3. Further, the GI50 is 23.3 µM (inactive) with HL-60; 19.9 µM (inactive) with K562; 14.8 µM (inactive) in the assay on 786-0; 22.8 µM (inactive) in the assay on LOX IMVI; 18.8 µM (inactive) in the assay with RXF 393; > 100 µM (inactive) in the assay with SF-295. In addition, the GI50 is 25.6 µM (inactive) in the assay on SF-268 and 3.21 µM (inactive) in the assay with RPMI-8226.
For `N#Cc1c(N2CCCC2)nsc1NCc1ccccc1`, the GI50 in the assay with HOP-92 was 54.1 µM (inactive); in the assay on MDA-N it was > 100 µM (inactive); in the assay on A498 it was > 100 µM (inactive); in the assay on OVCAR-5, > 100 µM (inactive); with Hs-578T, 60.4 µM (inactive); with COLO 205, > 100 µM (inactive). Further, the GI50 in the assay on IGROV-1, in the assay with UACC-257, in the assay with M14, in the assay with HT-29, in the assay on A549 and in the assay on SK-OV-3 was > 100 µM (inactive) throughout. The GI50 was > 100 µM (inactive) in the assay with HL-60; > 100 µM (inactive) with K562; > 100 µM (inactive) with 786-0; > 100 µM (inactive) in the assay on LOX IMVI; 15 µM (inactive) with RXF 393; > 100 µM (inactive) in the assay on SF-295. For the same compound, the GI50 in the assay on SF-268 and in the assay on RPMI-8226 was > 100 µM (inactive) in each case.
Take `[O-]c1c2cc(-[n+]3c(-c4ccccc4)cc(-c4ccccc4)cc3-c3ccccc3)cc1CO[C@@H](c1ccccc1)[C@H](c1ccccc1)OCCOCCO[C@@H](c1ccccc1)[C@H](c1ccccc1)OC2`: the GI50 with HOP-92 is 0.0857 µM (active); with MDA-N it was 0.0426 µM (active); with A498 it was 0.5 µM (active); in the assay on OVCAR-5 it was 0.453 µM (active); in the assay on Hs-578T, 0.0652 µM (active); with COLO 205, 0.0195 µM (active). Moreover, the GI50 was 0.0455 µM (active) in the assay with IGROV-1; 0.106 µM (active) in the assay with UACC-257; 0.0687 µM (active) in the assay on M14; 0.0386 µM (active) in the assay on HT-29; 0.0451 µM (active) in the assay on A549; 0.0502 µM (active) in the assay with SK-OV-3. Also, the GI50 was 0.0204 µM (active) with HL-60; 0.0284 µM (active) in the assay with K562; 0.0448 µM (active) in the assay on 786-0; 0.0577 µM (active) in the assay on LOX IMVI; 0.108 µM (active) with RXF 393; 0.0719 µM (active) with SF-295. Further, the GI50 is 0.0635 µM (active) in the assay with SF-268 and 0.0176 µM (active) with RPMI-8226.
On to `CN(/N=C/c1ccccn1)C1=NCCCN1`, for which the GI50 with HOP-92 is > 100 µM (inactive); in the assay with MDA-N, > 100 µM (inactive); with A498 it was 91.6 µM (inactive); in the assay with OVCAR-5 it was > 100 µM (inactive); with Hs-578T, > 100 µM (inactive); in the assay on COLO 205, > 100 µM (inactive). In addition, the GI50 in the assay on IGROV-1, in the assay on UACC-257, in the assay with M14, in the assay on HT-29, in the assay on A549 and in the assay with SK-OV-3 was > 100 µM (inactive) each time. In addition, the GI50 in the assay on HL-60, in the assay with K562, in the assay on 786-0, with LOX IMVI, in the assay with RXF 393 and in the assay with SF-295 was > 100 µM (inactive) each time. The GI50 with SF-268 and in the assay with RPMI-8226 was > 100 µM (inactive) in each case.
Take `O=C(O)CCSC(=S)Nc1ccc([N+](=O)[O-])cc1`: the GI50 in the assay on HOP-92 was 29.9 µM (inactive); in the assay on MDA-N, 23.1 µM (inactive); in the assay with A498, > 70.3 µM (inactive); in the assay with OVCAR-5, > 100 µM (inactive); in the assay on Hs-578T it was > 100 µM (inactive); with COLO 205 it was 97.9 µM (inactive). Besides, the GI50 in the assay with IGROV-1 is 42.9 µM (inactive); in the assay with UACC-257 it was 22.3 µM (inactive); with M14, > 85.9 µM (inactive); in the assay with HT-29, > 94 µM (inactive); with A549 it was > 83.2 µM (inactive); in the assay with SK-OV-3, > 100 µM (inactive). Moreover, the GI50 in the assay with HL-60 was 20.8 µM (inactive); in the assay with K562, 27.2 µM (inactive); in the assay with 786-0, > 100 µM (inactive); with LOX IMVI, 31.9 µM (inactive); with RXF 393, > 60.8 µM (inactive); in the assay with SF-295, 40.5 µM (inactive). Moreover, the GI50 was 34.5 µM (inactive) in the assay on SF-268 and 27.3 µM (inactive) in the assay on RPMI-8226.
For `O=C1C=CC(=O)N1c1ccc2c(c1)Cc1cc(NC(=O)C(F)(F)F)ccc1-2`, the GI50 in the assay on HOP-92 was 16.8 µM (inactive); in the assay with MDA-N, 17.1 µM (inactive); with A498 it was 20 µM (inactive); in the assay with OVCAR-5 it was 16.7 µM (inactive); with Hs-578T it was 21.1 µM (inactive); with COLO 205, 13.1 µM (inactive). Further, the GI50 in the assay on IGROV-1 is 16.6 µM (inactive); in the assay on UACC-257, 18 µM (inactive); in the assay on M14, 20.9 µM (inactive); with HT-29 it was 10.2 µM (inactive); in the assay on A549, 17.9 µM (inactive); in the assay on SK-OV-3 it was > 100 µM (inactive). In addition, the GI50 is 12.2 µM (inactive) with HL-60; 9.25 µM (inactive) in the assay on K562; 5.58 µM (inactive) with 786-0; 18 µM (inactive) in the assay on LOX IMVI; 5.66 µM (inactive) in the assay on RXF 393; > 100 µM (inactive) in the assay with SF-295. Besides, the GI50 in the assay on SF-268 is 19.1 µM (inactive); in the assay with RPMI-8226, 2.9 µM (inactive).
